The source of these data is patent publication US10004732B2 (Novartis AG, priority 2014, dated 2018).

One data set has as its target Vps34 (Homo sapiens, UniProt Q8NEB9). Nature of the data set: Kinase Glo Luminescent Kinase Assay (Kglo), assay C. The format is biochemical. Particulars: read-out: Assay C VPS34 IC50. Background: Kinase-Glo reads ATP consumption through a luciferase reaction.
A further data set deals with PI 4-kinase beta (Homo sapiens, UniProt Q9UBF8). Nature of the data set: Kinase Glo Luminescent Kinase Assay (Kglo), assay D. Particulars: read-out: Assay D PI4Kβ IC50. The format is biochemical.
PI 4-kinase beta, sequence (Q9UBF8 whole entry): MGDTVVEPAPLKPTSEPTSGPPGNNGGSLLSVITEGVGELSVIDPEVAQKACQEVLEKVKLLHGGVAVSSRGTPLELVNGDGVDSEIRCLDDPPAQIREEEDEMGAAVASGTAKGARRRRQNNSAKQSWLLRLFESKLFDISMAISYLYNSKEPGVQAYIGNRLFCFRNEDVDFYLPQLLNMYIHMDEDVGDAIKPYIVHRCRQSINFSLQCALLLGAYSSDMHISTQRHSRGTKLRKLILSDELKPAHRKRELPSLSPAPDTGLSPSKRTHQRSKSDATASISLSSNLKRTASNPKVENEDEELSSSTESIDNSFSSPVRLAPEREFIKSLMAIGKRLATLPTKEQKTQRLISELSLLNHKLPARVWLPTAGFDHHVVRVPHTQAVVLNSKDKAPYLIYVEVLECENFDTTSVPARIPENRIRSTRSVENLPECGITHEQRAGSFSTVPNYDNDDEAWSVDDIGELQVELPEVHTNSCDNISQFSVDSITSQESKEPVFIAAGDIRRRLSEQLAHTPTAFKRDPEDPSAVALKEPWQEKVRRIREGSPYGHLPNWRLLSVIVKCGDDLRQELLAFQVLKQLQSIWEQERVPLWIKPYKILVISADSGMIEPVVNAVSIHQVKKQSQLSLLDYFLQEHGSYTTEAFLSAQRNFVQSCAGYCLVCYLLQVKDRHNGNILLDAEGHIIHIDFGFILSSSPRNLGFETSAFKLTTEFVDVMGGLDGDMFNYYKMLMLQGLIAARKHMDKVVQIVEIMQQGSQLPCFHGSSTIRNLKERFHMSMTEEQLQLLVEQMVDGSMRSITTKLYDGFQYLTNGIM
The target of data set [1] is T1, PI 3-kinase alpha (Homo sapiens, UniProt P42336). Nature of the data set: Cellular assay H1, p-Akt (S473) in Rat-1 cells, Surefire format. The format is cell-based. Particulars: non-asterisked data: version H1 (Surefire format), Rat-1 cells; read-out: Assay H PI3Kα IC50.
For data set [2], the target named is T2, PI 3-kinase delta (Homo sapiens, UniProt O00329). Description: Cellular assay J1, p-Akt (S473) in Rat-1 cells, Surefire format. Particulars: non-asterisked data: version J1 (Surefire format), Rat-1 cells; read-out: Assay J PI3Kδ IC50. In kind it is cell-based.
Excerpt: (§1) Cellular Assays for PI 3-Kinase Alpha (H1), Beta (I1) and Delta (J1): Surefire Format
(§2) AlphaScreen (Amplified Luminescent Proximity Homogeneous Assay, ALPHA, Perkin Elmer) is a non-radioactive bead-based proximity assay technology to study biomolecular interactions in a homogenous microtiter plate format. The brand name SureFire denotes AlphaScreen assays that are adapted to quantify the phosphorylation of endogenous cellular proteins in cell lysates, by using matched antibody pairs, which consist of an anti-phospho-kinase and an anti-kinase antibody. The assay allows characterization of kinase signaling in cells as well as measurement of kinase inhibitor effects.
(§3) Using Rat-1 cells stably expressing myr-HA-tagged versions of the human PI3Kdelta, PI3Kalpha, or PI3Kbeta p110 catalytic subunit isoforms, the assay was developed as a two-plate protocol in a 384-well format.
(§4) For compound testing, the cells were seeded at a density of 4000 (Rat-1_PI3Kdelta), 7500 (Rat-1_PI3Kalpha), or 6200 (Rat-1_PI3Kbeta) cells in 20 μl complete growth medium into cell culture treated 384-well plates and were grown at 37° C./5% CO2/90% humidity for 24 h. Shortly before compound transfer, the complete medium was removed, 30 μl assay buffer (DMEM high glucose, 1×MEM NEAA, 10 mM HEPES, 2 mM L-glutamine, 0.1% (w/v) BSA) was added and 10 μl of the compound predilutions were transferred to the cells.
Data set [3] deals with T1, PI 3-kinase alpha. Nature of the data set: Kinase Glo Luminescent Kinase Assay (Kglo), assay A. In kind it is biochemical. The note with it: read-out: Assay A PI3Kα IC50.
Description: Kinase Glo Luminescent Kinase Assay (Kglo) for Pb 3-Kinase Alpha (A), Pb 3-Kinase Beta (B), Vps34 (C), Pb 4-Kinase Beta (D)
The Kinase Glo Luminescent Kinase Assay (Promega, Madison/Wis., USA) is a homogeneous HTS method of measuring kinase activity by quantifying the amount of ATP remaining in solution following a kinase reaction.
L-α-phosphatidylinositol (PI), provided as 10 mg/ml solution in methanol, was transferred into a glass tube and dried under a nitrogen beam. It was then resuspended in 3% OctylGlucoside (1-0-n-octyl-beta-D-glucopyranoside) by vortexing and stored at 4° C. 5 μL of a mix of PI/OctylGlucoside with the PI 3-kinase alpha and PI 3-kinase beta subtypes, or Vps34 or PI 4-kinase beta were added. Kinase reactions were started by the addition of 5 μl of an ATP-mix containing in a final volume 10 μL 10 mM TRIS-HCl pH 7.5, 3 mM MgCl2, 50 mM NaCl, 0.05% CHAPS, 1 mM DTT and 1 μM ATP at room temperature.
All fits were performed with the program XLfit4 (ID Business Solutions, Guildford, UK).
Another data set addresses PI 3-kinase gamma (Homo sapiens, UniProt P48736). Description: TR-FRET Adapta assay, assay E. In kind it is biochemical. The note with it: for IC50: read-out: Assay E PI3Kγ IC50.
The target in data set [4] is T2, PI 3-kinase delta. Description: TR-FRET Adapta assay, assay F. For orientation: In TR-FRET formats the signal depends on donor and acceptor labels being close together.
For data set [5], the target named is T3, PI 3-kinase beta (Homo sapiens, UniProt P42338). Nature of the data set: Kinase Glo Luminescent Kinase Assay (Kglo), assay B. Particulars: read-out: Assay B PI3Kβ IC50. The format is biochemical.
Target sequence in this assay (P42338 whole entry): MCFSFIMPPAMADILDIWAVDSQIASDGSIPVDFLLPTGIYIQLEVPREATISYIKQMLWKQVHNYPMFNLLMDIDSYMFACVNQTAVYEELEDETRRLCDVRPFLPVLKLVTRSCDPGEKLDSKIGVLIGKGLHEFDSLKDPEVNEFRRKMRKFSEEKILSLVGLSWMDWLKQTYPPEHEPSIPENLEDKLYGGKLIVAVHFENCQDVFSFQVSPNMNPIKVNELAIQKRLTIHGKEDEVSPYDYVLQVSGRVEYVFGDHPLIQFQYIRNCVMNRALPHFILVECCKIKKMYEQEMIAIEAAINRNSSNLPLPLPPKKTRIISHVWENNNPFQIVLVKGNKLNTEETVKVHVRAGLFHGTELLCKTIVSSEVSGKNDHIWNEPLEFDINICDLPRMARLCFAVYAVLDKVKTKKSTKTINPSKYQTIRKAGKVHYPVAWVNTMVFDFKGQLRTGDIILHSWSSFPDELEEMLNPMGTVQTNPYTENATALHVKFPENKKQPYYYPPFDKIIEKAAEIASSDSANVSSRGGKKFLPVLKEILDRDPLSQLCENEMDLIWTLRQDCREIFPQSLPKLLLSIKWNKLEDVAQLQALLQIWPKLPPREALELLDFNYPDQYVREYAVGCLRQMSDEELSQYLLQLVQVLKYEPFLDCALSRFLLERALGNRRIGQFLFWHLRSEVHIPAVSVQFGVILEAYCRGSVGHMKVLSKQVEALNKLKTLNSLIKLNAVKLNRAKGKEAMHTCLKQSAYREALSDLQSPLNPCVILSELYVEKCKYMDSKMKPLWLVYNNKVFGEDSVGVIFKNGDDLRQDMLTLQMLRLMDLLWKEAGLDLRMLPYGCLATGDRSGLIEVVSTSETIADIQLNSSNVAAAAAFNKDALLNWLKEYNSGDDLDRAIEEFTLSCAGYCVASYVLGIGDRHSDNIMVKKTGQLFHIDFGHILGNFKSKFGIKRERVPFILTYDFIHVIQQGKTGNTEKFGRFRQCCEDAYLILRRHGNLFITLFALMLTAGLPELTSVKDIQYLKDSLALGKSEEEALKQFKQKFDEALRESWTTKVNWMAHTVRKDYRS
Target sequence in this assay (P27986 461-568 partner): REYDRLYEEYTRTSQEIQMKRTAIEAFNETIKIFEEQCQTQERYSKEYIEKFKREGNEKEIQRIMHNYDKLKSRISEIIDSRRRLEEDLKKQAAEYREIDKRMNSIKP
Another data set concerns the target mTOR (Homo sapiens, UniProt P42345). Nature of the data set: Lanthascreen kinase binding assay, assay G. The note with it: read-out: Assay G mTOR IC50.
Data set [6] deals with T3, PI 3-kinase beta. Nature of the data set: Cellular assay I1, p-Akt (S473) in Rat-1 cells, Surefire format. In kind it is cell-based. The note with it: non-asterisked data: version I1 (Surefire format), Rat-1 cells; read-out: Assay I PI3Kβ IC50.
Target sequence in this assay (P42338 whole entry): as the sequence (P42338 whole entry) above
Target sequence in this assay (Q63787 whole entry partner): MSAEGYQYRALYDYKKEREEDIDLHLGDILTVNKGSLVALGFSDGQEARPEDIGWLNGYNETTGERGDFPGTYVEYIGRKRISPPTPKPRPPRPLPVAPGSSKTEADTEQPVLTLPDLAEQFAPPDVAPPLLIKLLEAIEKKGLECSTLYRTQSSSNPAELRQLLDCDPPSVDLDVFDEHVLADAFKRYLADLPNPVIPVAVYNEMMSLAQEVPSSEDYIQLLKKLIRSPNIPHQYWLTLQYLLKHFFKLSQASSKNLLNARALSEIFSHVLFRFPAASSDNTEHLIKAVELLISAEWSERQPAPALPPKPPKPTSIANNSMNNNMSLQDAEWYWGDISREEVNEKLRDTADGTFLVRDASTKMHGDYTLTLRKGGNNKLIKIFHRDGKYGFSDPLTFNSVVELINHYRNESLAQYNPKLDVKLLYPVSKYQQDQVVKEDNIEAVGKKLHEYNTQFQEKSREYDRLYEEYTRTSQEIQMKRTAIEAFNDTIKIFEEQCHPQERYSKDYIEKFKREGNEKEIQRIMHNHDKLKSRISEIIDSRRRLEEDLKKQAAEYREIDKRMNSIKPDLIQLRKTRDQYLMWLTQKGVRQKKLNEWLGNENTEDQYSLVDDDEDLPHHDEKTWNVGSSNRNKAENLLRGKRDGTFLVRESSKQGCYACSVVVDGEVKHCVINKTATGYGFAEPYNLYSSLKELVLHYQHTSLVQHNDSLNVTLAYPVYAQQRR
Excerpt: as §1, §2, §3, §4
The nature of data set [7]: Microsomal clearance assay (M). Particulars: intrinsic clearance in rat liver microsomes. In general terms: Liver microsomes are a subcellular fraction often used to study metabolism.
Description: The experiments were performed in 96-well glass plates at 37° C. on an automated Tecan EVO platform. Test compounds at a concentration of 10 mM in pure DMSO were diluted 1:1000 in water to 10 μM. […] Reactions were initiated by the addition of 150 μL of a cofactor solution containing 2 mM NADPH.

PI 3-kinase gamma, sequence (P48736 whole entry): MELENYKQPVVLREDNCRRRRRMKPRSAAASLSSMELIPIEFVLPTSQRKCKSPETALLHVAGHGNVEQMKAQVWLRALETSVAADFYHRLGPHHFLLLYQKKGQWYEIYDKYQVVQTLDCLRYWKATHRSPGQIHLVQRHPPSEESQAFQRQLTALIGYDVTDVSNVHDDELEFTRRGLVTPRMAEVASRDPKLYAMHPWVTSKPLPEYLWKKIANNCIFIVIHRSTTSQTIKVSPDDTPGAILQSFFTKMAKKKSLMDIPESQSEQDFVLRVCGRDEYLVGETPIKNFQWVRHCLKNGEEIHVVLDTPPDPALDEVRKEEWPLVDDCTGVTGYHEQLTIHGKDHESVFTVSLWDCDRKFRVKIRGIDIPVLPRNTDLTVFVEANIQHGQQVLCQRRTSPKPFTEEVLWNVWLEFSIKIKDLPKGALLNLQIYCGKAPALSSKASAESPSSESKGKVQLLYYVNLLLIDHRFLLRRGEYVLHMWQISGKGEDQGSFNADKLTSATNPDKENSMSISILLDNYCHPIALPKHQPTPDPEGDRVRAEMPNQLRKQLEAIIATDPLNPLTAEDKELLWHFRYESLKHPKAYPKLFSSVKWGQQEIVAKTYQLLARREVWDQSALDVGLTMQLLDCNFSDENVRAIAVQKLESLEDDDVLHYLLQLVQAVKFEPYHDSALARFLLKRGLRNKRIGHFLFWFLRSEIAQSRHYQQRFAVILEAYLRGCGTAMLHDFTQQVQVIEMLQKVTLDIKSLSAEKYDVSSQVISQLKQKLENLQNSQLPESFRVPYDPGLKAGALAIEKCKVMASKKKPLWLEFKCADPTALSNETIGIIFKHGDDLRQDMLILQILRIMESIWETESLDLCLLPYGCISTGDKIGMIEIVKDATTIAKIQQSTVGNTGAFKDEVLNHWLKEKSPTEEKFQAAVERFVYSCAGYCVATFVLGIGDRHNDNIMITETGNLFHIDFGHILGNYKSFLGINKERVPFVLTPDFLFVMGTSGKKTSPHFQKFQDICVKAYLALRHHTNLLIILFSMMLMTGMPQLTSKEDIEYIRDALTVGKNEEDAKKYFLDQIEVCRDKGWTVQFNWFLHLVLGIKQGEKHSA
Vps34, sequence (Q8NEB9 whole entry, species assumed): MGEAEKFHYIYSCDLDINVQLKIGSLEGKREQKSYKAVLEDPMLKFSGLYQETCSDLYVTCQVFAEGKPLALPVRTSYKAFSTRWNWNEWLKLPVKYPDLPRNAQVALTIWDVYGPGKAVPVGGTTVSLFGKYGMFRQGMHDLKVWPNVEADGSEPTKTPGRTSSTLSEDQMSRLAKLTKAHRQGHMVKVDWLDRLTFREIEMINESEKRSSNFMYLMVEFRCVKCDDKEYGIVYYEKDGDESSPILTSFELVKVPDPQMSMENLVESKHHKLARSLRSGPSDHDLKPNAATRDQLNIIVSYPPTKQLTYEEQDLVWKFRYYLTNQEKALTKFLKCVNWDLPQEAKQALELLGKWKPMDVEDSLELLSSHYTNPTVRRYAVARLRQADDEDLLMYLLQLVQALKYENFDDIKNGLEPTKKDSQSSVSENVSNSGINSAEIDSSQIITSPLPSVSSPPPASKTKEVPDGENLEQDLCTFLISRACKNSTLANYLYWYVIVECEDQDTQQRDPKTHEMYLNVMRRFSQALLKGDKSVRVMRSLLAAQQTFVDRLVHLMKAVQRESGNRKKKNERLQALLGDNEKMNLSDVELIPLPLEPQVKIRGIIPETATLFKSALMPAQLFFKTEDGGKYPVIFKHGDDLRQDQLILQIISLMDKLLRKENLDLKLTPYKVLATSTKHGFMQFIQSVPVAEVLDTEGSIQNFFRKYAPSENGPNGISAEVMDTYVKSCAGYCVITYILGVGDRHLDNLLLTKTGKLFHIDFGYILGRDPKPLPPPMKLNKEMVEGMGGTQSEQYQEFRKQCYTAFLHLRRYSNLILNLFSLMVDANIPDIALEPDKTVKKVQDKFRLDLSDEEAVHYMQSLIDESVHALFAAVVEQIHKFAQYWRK
Description for mTOR: Lanthascreen™ Kinase Binding Assay for mTOR (G)
Binding of an inhibitor to the kinase competes for binding with the tracer, resulting in a loss of FRET.
50 nL of compound dilutions were dispensed onto white 384-well small volume polystyrene plate.

Regarding `Cc1ccc(S(=O)(=O)NC[C@@H]2COCCN2C)cc1-c1cnc(N)c(-c2cn(C)nc2C)n1` (single isomer, unassigned) [Example 128.3a, (R)-3-(5-Amino-6-(1,3-dimethyl-1H-pyrazol-4-yl)pyrazin-2-yl)-4-methyl-N-((4-methylmorpholin-3-yl)methyl)benzenesulfonamide or (S)-3-(5-Amino-6-(1,3-dimethyl-1H-pyrazol-4-yl)pyrazin-2-yl)-4-methyl-N-((4-methylmorpholin-3-yl)methyl)benzenesulfonamide], the 50% inhibitory concentration (IC50) (usually the concentration at which inhibition is half-maximal) on Vps34 was above 10 µM; at PI 4-kinase beta, above 10 µM; at PI 3-kinase alpha [1], 5.15 µM; at PI 3-kinase delta [2], 2100 nM.

For the compound `Cc1ccc(S(=O)(=O)NCC2COCCN2C)cc1-c1cnc(N)c(-c2cn(C)nc2C)n1` (single isomer, unassigned) [Example 128.3b, (R)-3-(5-Amino-6-(1,3-dimethyl-1H-pyrazol-4-yl)pyrazin-2-yl)-4-methyl-N-((4-methylmorpholin-3-yl)methyl)benzenesulfonamide or (S)-3-(5-Amino-6-(1,3-dimethyl-1H-pyrazol-4-yl)pyrazin-2-yl)-4-methyl-N-((4-methylmorpholin-3-yl)methyl)benzenesulfonamide], the IC50 on PI 3-kinase alpha [3] was 370 nM; at Vps34 it was above 10 µM; on PI 4-kinase beta, 4.6 µM; at PI 3-kinase gamma, 55 nM; at PI 3-kinase alpha [1], 4.97 µM; on PI 3-kinase delta [2], 3820 nM. In addition, at PI 3-kinase delta [4], the midpoint of inhibition, the IC50, lay at 540 nM.

Turning to `Cc1ncc(-c2nc(-c3cc(S(=O)(=O)N[C@H]4CC[C@H](O)CC4)ccc3C)cnc2N)s1` [Example 14, Trans-3-(5-Amino-6-(2-methylthiazol-5-yl)pyrazin-2-yl)-N-(4-hydroxycyclohexyl)-4-methylbenzenesulfonamide], the IC50 at PI 3-kinase beta [5] is 620 nM; at Vps34 it was 0.42 µM; on PI 4-kinase beta, 1.57 µM; at mTOR, 0.88 µM; at PI 3-kinase beta [6] it was 1.79 µM; at PI 3-kinase delta [2], 310 nM. Moreover, the IC50 on PI 3-kinase delta [4] (read-out: Assay F PI3Kδ IC50) turned out to be 40 nM.

For the compound `Cc1ncc(-c2nc(-c3cc(S(=O)(=O)NC4CCC(F)(F)CC4)ccc3C)cnc2N)s1` [Example 55, 3-(5-Amino-6-(2-methylthiazol-5-yl)pyrazin-2-yl)-N-(4,4-difluorocyclohexyl)-4-methylbenzenesulfonamide], the IC50 on PI 3-kinase beta [5] turned out to be 120 nM; at Vps34 it was 0.64 µM; at PI 4-kinase beta, 3.74 µM; on mTOR, 0.62 µM; at PI 3-kinase beta [6], 2.67 µM; on PI 3-kinase delta [2] it was 1240 nM. For the same compound, the IC50 at PI 3-kinase delta [4] (read-out: Assay F PI3Kδ IC50) turned out to be 30 nM.

For `Cc1ccc(S(=O)(=O)NC2CC3(CC(O)C3)C2)cc1-c1cnc(N)c(-c2cn(C)nc2C)n1` (stereo not drawn) [Example 74, 3-(5-Amino-6-(1,3-dimethyl-1H-pyrazol-4-yl)pyrazin-2-yl)-N-(6-hydroxyspiro[3.3]heptan-2-yl)-4-methylbenzenesulfonamide], the IC50 is 830 nM at PI 3-kinase beta [5]; above 10 µM at Vps34; 41 nM on PI 3-kinase gamma; 3.5 µM at mTOR; above 10 µM on PI 3-kinase beta [6]; 6860 nM on PI 3-kinase delta [2]. The IC50 at PI 3-kinase delta [4] (read-out: Assay F PI3Kδ IC50) came out at 380 nM. Also, the “Assay M RLM CI(int)” value in [7] was found to be 30 µL/min/mg.

In the case of `Cc1ncc(-c2nc(-c3cc(S(=O)(=O)N[C@H]4CC[C@@H](O)CC4)ccc3C)cnc2N)s1` [Example 87, 3-(5-Amino-6-(2-methylthiazol-5-yl)pyrazin-2-yl)-N-((1s,4s)-4-hydroxycyclohexyl)-4-methylbenzenesulfonamide], the half-inhibitory concentration (IC50) was 270 nM on PI 3-kinase beta [5]; 0.32 µM at Vps34; 1.57 µM on PI 4-kinase beta; 1.84 µM on mTOR; 3.4 µM on PI 3-kinase beta [6]; 1220 nM on PI 3-kinase delta [2]. Further, the IC50 on PI 3-kinase delta [4] (read-out: Assay F PI3Kδ IC50) is 30 nM.

On to `Cc1ccc(S(=O)(=O)NOCC(C)C)cc1-c1cnc(N)c(-n2cncn2)n1` [Example 112.4, 3-(5-Amino-6-(1H-1,2,4-triazol-1-yl)pyrazin-2-yl)-N-isobutoxy-4-methylbenzenesulfonamide], for which the IC50 is 80 nM on PI 3-kinase alpha [3]; 560 nM at PI 3-kinase beta [5]; above 10 µM at Vps34; 1.1 µM on PI 4-kinase beta; 93 nM on PI 3-kinase gamma; above 10 µM at mTOR. Moreover, the IC50 was 0.07 µM on PI 3-kinase alpha [1], above 3 µM on PI 3-kinase beta [6], 400 nM at PI 3-kinase delta [2] and 190 nM on PI 3-kinase delta [4] (read-out: Assay F PI3Kδ IC50).

With `Cc1ccc(S(=O)(=O)NCCC(C)(C)O)cc1-c1cnc(N)c(-c2cc(C(F)(F)F)nn2C)n1` [Example 119, 3-(5-Amino-6-(1-methyl-3-(trifluoromethyl)-1H-pyrazol-5-yl)pyrazin-2-yl)-N-(3-hydroxy-3-methylbutyl)-4-methylbenzenesulfonamide], the IC50 at PI 3-kinase alpha [3] was 600 nM; at PI 3-kinase beta [5], above 9100 nM; at Vps34, above 9.1 µM; at PI 4-kinase beta, above 9.1 µM; on PI 3-kinase gamma, 118 nM; on mTOR, 4.31 µM. Besides, the IC50 on PI 3-kinase alpha [1] amounted to 1.64 µM; at PI 3-kinase beta [6], 3.06 µM; at PI 3-kinase delta [2], 1760 nM; on PI 3-kinase delta [4] (read-out: Assay F PI3Kδ IC50), 710 nM.

For the compound `Cc1ccc(S(=O)(=O)NCCC(C)(C)O)cc1-c1cnc(N)c(-c2cccnc2F)n1` [Example 119.1], the IC50 is 610 nM on PI 3-kinase alpha [3]; above 9100 nM at PI 3-kinase beta [5]; above 9.1 µM at Vps34; 6.2 µM on PI 4-kinase beta; 1000 nM on PI 3-kinase gamma; 4.91 µM at mTOR. Moreover, the IC50 at PI 3-kinase alpha [1] is 2.69 µM; at PI 3-kinase beta [6] it was 3.81 µM; at PI 3-kinase delta [2] it was 2820 nM; on PI 3-kinase delta [4] (read-out: Assay F PI3Kδ IC50) it was 2300 nM.

For the compound `COc1ncccc1-c1nc(-c2cc(S(=O)(=O)NCCC(C)(C)O)ccc2C)cnc1N` [Example 119.4], the IC50 at PI 3-kinase alpha [3] was 2830 nM; on PI 3-kinase beta [5], above 9100 nM; at Vps34, above 9.1 µM; at PI 4-kinase beta it was above 9.1 µM; on PI 3-kinase gamma, 3120 nM; at mTOR, above 9.1 µM. Besides, the half-maximal inhibitory concentration (IC50) on PI 3-kinase alpha [1] is above 10 µM; at PI 3-kinase beta [6], above 10 µM; at PI 3-kinase delta [2] it was above 10000 nM; on PI 3-kinase delta [4] (read-out: Assay F PI3Kδ IC50) it was 5700 nM.

In the case of `Cc1cncc(-c2nc(-c3cc(S(=O)(=O)NCCC(C)(C)O)ccc3C)cnc2N)c1` [Example 119.7], the IC50 at PI 3-kinase alpha [3] is 2980 nM; at PI 3-kinase beta [5], above 9100 nM; at Vps34, above 9.1 µM; at PI 4-kinase beta it was 7.96 µM; on PI 3-kinase gamma it was 278 nM; at mTOR, 4.32 µM. In addition, the IC50 worked out at 6.97 µM at PI 3-kinase alpha [1], 4.05 µM on PI 3-kinase beta [6], 5930 nM on PI 3-kinase delta [2] and 720 nM at PI 3-kinase delta [4] (read-out: Assay F PI3Kδ IC50).

As to `Cc1ccc(S(=O)(=O)NCCC(C)(C)O)cc1-c1cnc(N)c(-c2cc(Cl)cnc2F)n1` [Example 119.8], the 50% inhibitory concentration (IC50) was 1050 nM at PI 3-kinase alpha [3]; above 9100 nM at PI 3-kinase beta [5]; above 9.1 µM at Vps34; 4.53 µM on PI 4-kinase beta; 167 nM at PI 3-kinase gamma; 5.94 µM at mTOR. The half-inhibitory concentration (IC50) was 3.85 µM at PI 3-kinase alpha [1], 4.64 µM at PI 3-kinase beta [6], 5200 nM on PI 3-kinase delta [2] and 200 nM at PI 3-kinase delta [4] (read-out: Assay F PI3Kδ IC50).

On to `Cc1ncc(-c2nc(-c3cc(S(=O)(=O)NCCC(C)(C)O)ccc3C)cnc2N)s1` [Example 119.29], for which the IC50 on PI 3-kinase beta [5] is 920 nM; on Vps34, 0.57 µM; on PI 4-kinase beta, 2.64 µM; at mTOR, 0.59 µM; at PI 3-kinase beta [6], 9.08 µM; at PI 3-kinase delta [2], 470 nM. The IC50 on PI 3-kinase delta [4] (read-out: Assay F PI3Kδ IC50) is 70 nM.

Consider `Cc1ccc(S(=O)(=O)NCC2CN(C)CCO2)cc1-c1cnc(N)c(-c2cn(C)nc2C)n1` (stereo not drawn) [Example 128.5, 3-(5-Amino-6-(1,3-dimethyl-1H-pyrazol-4-yl)pyrazin-2-yl)-4-methyl-N-((4-methylmorpholin-2-yl)methyl)benzenesulfonamide], for which the IC50 on PI 3-kinase alpha [3] is 2300 nM; on PI 3-kinase beta [5] it was 9600 nM; on Vps34, above 10 µM; at PI 4-kinase beta, above 10 µM; at PI 3-kinase gamma it was 370 nM; at PI 3-kinase alpha [1], above 10 µM. Also, the concentration for half-maximal inhibition (IC50) on PI 3-kinase beta [6] is above 10 µM; at PI 3-kinase delta [2], above 10000 nM; on PI 3-kinase delta [4] (read-out: Assay F PI3Kδ IC50), 2200 nM.

For the compound `Cc1ccc(S(=O)(=O)NCCC(C)(C)O)cc1-c1cnc(N)c(-c2cccnc2OC(C)C)n1` [Reference example 119.12, 3-(5-amino-6-(2-isopropoxypyridin-3-yl)pyrazin-2-yl)-N-(3-hydroxy-3-methylbutyl)-4-methylbenzenesulfonamide], the “activity in assay E” value on PI 3-kinase gamma (TR-FRET Adapta, PI 3-kinase gamma) is given as “not shown any activity”. The IC50 at PI 3-kinase alpha [1] was above 10 µM; at PI 3-kinase beta [6], above 10 µM; at PI 3-kinase delta [2], above 10000 nM.
